Source: article PMC10354055, “An optimized Nurr1 agonist provides disease-modifying effects in Parkinson’s disease models” (Nature Communications, 2023)
Values joined by “and” are separate entries in the source; they are usually repeats but may differ in a detail not shown here. Equal values may be shown once.

Tests used:
Nurr1 mRNA = Nurr1 mRNA level, qRT-PCR, MN9D cells; type: cell-based, mouse; conditions: MPP+ or αSyn overexpression
Experimental: (§1) Total RNA was extracted using the GeneJET RNA Purification Kit (Thermo Fisher Scientific) and 100 ng of RNA was subjected to cDNA synthesis using Invitrogen Superscript cDNA Synthesis Kit (Invitrogen) according to the manufacturer’s protocol. qRT-PCR was performed using a CFX Connect Real-Time System (Bio-Rad) in a 20 μl volume mixture containing 2X SsoAdvanced Universal SYBR Green Supermix (Bio-Rad), 100 ng/μl of forward and reverse primers, and 1 μl of cDNA sample. Gene expression levels were quantified by the 2^∆∆CT method (Ct of target gene—Ct of glyceraldehyde-3-phosphate dehydrogenase (GAPDH). The following primers were used for qRT-PCR: TH forward: 5′-[…]-3′, reverse: 5′-[…]-3′; DAT forward: 5′-[…]-3′, reverse: 5′-[…]-3′; AADC forward: 5′-[…]-3′, reverse: 5′-[…]-3′; VMAT2 forward: 5′-[…]-3′, reverse: 5′-[…]-3′; c-Ret forward: 5′-[…]-3′, reverse: 5′-[…]-3′; TNFα forward: 5′-[…]-3′; reverse: 5′-[…]-3′; GAPDH, forward 5′-[…]-3′, reverse 5′-[…]-3′.
Lenti-GFP, -αSyn^WT, and -αSyn^A53T viruses were generated separately by co-transfecting each shuttle plasmid with lentivirus packaging plasmids into HEK293T cells using lipofectamine 2000 (Invitrogen). Briefly, 2 μg each FUW inducible shuttle plasmid, 2 μg FUW-rtTA, 2 μg psPax2 and 1.5 μg MD2.G were mixed and transfected into HEK293T cells. After 48 h, viral supernatants were collected and centrifuged at 1000g for 10 min, and subsequently filtered through a 0.45 μm filter. Lentiviruses were transduced into MN9D cells with 8 μg/ml of polybrene and the viral supernatant was removed and replaced with fresh medium a day after transduction.

[1] = tested on: mouse ventral mesencephalic (VM) primary cells; test: Dopaminergic gene expression, qRT-PCR, primary VM cells with 6-OHDA; type: cell-based; conditions: VM primary cells, decreased by 6-OHDA; CQ 20 µM, 4A7C-301 0.5 µM
Experimental: as §1
Briefly, dissected VM brain tissues were collected in ice-cold Dulbecco’s phosphate-buffered saline (DPBS) and then mechanically dissociated using pipettes. Thereafter, dissociated tissues were incubated in 0.05 % Trypsin-EDTA (Invitrogen) for 5 min at 37 °C. The cell suspension was plated onto glass coverslips in 48-well plates pre-coated with […] poly-L-ornithine, 5 μg/ml Fibronectin or 1 μg/ml Laminin at a density of 2.0 × 10^5 cells/cm^2 in differentiation medium (1% heat-inactivated FBS, 2 mM L-glutamine, 50X B27 supplement, 100 μM ascorbic acid and 2 μg/ml bFGF in Neurobasal media).

HeLa cells [2] = test: Lysosomal pH detection, LysoSensor, HeLa cells; type: cell-based
Experimental: (§2) Lysosomal pH was detected as previously described. Briefly, after incubation in EBSS containing BafA1 (10 nM), CQ (20 µM), or 4A7C-301 (1 µM) for 6 h, HeLa and N27-A cells were treated with LysoSensor™ Yellow/Blue DND-160 (5 µM; Life Technology) for 45 min, followed by 2 washes in HEPES buffer (Gibco). Fluorescence images at excitation/emission wavelengths of 360/460 nm and 470/525 nm were taken immediately using a 400 nm dichroic mirror (KEYENCE). The ratio of fluorescence intensities (F360/470) were measured and calculated manually using ImageJ for each cell. The average pH from measuring 5 cells from each of three wells for each treatment group in both HeLa and N27-A cells was calculated by fitting the F360/470 values to a plotted pH calibration curve with KCl/NaCl buffered from pH 3.5 to 7.0 using GraphPad Prism (Version 8.0.2).

N27-A cells = test: Lysosomal pH detection, LysoSensor, N27-A cells; type: cell-based, rat
Experimental: as §2

HeLa cells [3] = test: Autophagic flux, Western blot LC3B and p62, HeLa cells; type: cell-based; conditions: HeLa, LC3B-II and p62
Experimental: Experiments were confirmed by duplicate measurements of the same sample. Quantification of immunoreactive bands was performed using ImageJ software (NIH, Bethesda, MD, USA) and expressed as a relative ratio against β-actin.
The band intensities were quantified using ImageJ and normalized against β-actin.

MPTP-induced male mice = test: Olfactory discrimination test, MPTP-induced PD model mice; type: in vivo, mouse
Experimental: MPTP (Sigma-Aldrich) was intraperitoneally (i.p.) injected (30 mg/kg) for 5 days (Day 1-5). […] To test dyskinetic involuntary behavior, an L-DOPA injected group was included, which received 50 mg/kg of L-DOPA and 15 mg/kg of benserazide (Sigma-Aldrich) (i.p.) for 16 days (Day 1–16). All compounds were administered 6 h post-MPTP injection to avoid any effect of compounds on the MPTP metabolism in the brain. Motor and non-motor related behavior tests were performed on the following days as described in Fig. 4a in an assessor- and observer-blinded fashion. Pre-training and baseline setup for motor-related behaviors were performed 3 days prior to the injections. Mice were sacrificed and subjected to immunohistochemistry. Mice were housed at the Animal Care Facilities of McLean Hospital under a 12-h light/12-h dark cycle, ambient temperature and humidity. Animals were handled in accordance with McLean Hospital’s Institutional Animal Care and Use Committee (Protocol #: 2015N000002) and followed National Institutes of Health guidelines.
The olfactory discrimination test was designed based on Prediger et al.. Briefly, mice were placed in a chamber (40 (w) × 20 (d) × 20 (h) cm) segmented with two identical compartments containing fresh sawdust (non-familiar odor) on one side and unchanged sawdust (familiar odor; maintained for 3 days before the test) on the other side. Mice could choose between one or another area by freely passing through an open door, for 5 min. Mice movements were monitored with EthoVision XT version 7.0 (Noldus) and time (s) and distance (cm) traveled in each compartment were recorded and analyzed.

CCN(CC)CCCC(C)Nc1ccnc2cc(Cl)ccc12 (stereo not drawn) [CQ, chloroquine]
Nurr1 mRNA levels (in words) (Nurr1 mRNA): did not alter | dopaminergic gene expression (in words) [1]: significantly rescued | lysosomal pH (in words) (HeLa cells [2]; HeLa, BafA1 10 nM, CQ 20 µM, 4A7C-301 1 µM): significantly increased | Lysosomal pH (HeLa cells [2]; Supplementary Figure S7d, individual replicates): 5.589 and 4.742 and 6.013 and 6.078 and 6.11 and 5.947 and 5.068 and 6.501 and 6.208 and 6.469 and 5.524 and 5.98 and 6.534 and 5.556 | Lysosomal pH (N27-A cells; Figure 3d, individual replicates): 4.937 and 5.068 and 5.133 and 5.85 and 5.426 and 5.296 and 5.622 and 4.4486 and 5.263 and 4.481 and 5.947 | lysosomal pH (in words) (N27-A cells; N27-A, BafA1 10 nM, CQ 20 µM, 4A7C-301 1 µM): significantly increased | autophagic flux (in words) (HeLa cells [3]): failed to terminate | olfaction, olfactory discrimination test (in words) (MPTP-induced male mice; CQ 40, 4A7C-301 5, L-DOPA 50 mg/kg/day, i.p.): significantly restored | Velocity (MPTP-induced male mice; Figure 4e, MPTP-induced mice, individual animal values): 3.95 cm/s and 4.45 cm/s and 4.51 cm/s and 5.91 cm/s and 5.61 cm/s and 5.73 cm/s and 4.26 cm/s and 5.02 cm/s and 3.4 cm/s and 5.27 cm/s and 6.07 cm/s
